Reference: US20070071831A1, “Product for the prevention and the treatment of grapevine infections and method of preparation thereof” (Vomm Impianti e Processi S.p.A., priority 2005, published 2007)

Key:
[1] = test system: corky bark; assay: Vineyard treatment of grapevine plants against corky bark; assay type: in vivo; conditions: remaining plants (more than 500) of the same vineyard
Excerpt: Finally, some preliminary experiments have shown that the product of the invention is effective not only against downy mildew infections but also against other plant diseases such as, in particular, corky bark, caused by the phytoplasm transmitted by the vector Scaphoideus titanus Ball, a Deltocefalinae plathopper.
In particular the product has been tested on 70 grapevine plants arranged on five rows in a vineyard wherein the remaining plants (more than 500) have been treated with a conventional synthetic plant protection product (Fenitrothion).

[2] = test system: downy mildew; assay: Vineyard treatment of grapevine plants against downy mildew; assay type: in vivo, Plasmopara viticola; conditions: remaining plants of a vineyard of approximately 1000 grapevine plants; same number and times of applications; beginning of March to end of July
Procedure: The product obtained according to example 1 was diluted with water, mixing a part of product with ten parts of water and it was used to treat the grapevine plants.
The product thus diluted was applied by spraying on 70 grapevine plants arranged in 5 rows in a vineyard comprising approximately 1000 grapevine plants. The remaining plants were then treated with a conventional synthetic plant protection product (Metiram).
The treatments were carried out during the period between the beginning of March and the end of July, each time applying a quantity of 100 g of diluted product per plant. The same number of applications as those of the conventional plant protection product were carried out, at the same times.

Compound	plants attacked by corky bark [1]	plants showing obvious signs of downy mildew infestation [2] [%]
COP(=S)(OC)Oc1ccc([N+](=O)[O-])c(C)c1 [Fenitrothion]	majority	
Metiram		18
